Data published in PubChem BioAssay AID2060498 (Molecular Pharmacology Branch, DTP, NCI, 2025).

System: 171881-019-R-J1-PDC tumor spheroids, viability
Assay: Anticancer human tumor 171881-019-R-J1-PDC patient-derived invasive breast carcinoma cell line growth inhibition [GQUAD]
Settings: spheroids with HUVEC and MSC; for IC50: curve of first compound; for viability, T/C: stronger effect = lower value
From the text: DNA G-quadruplex Stabilizer Agents in Combinations in Complex Spheroids
A high-throughput screen of multi-cell type tumor spheroids was designed to identify active combinations of DNA G-quadruplex stabilizer agents and targeted small molecules. Complex spheroids include a stromal component modeled by human endothelial cells (HUVEC) and fibroblasts modeled by human mesenchymal stem cells (MSCs). The concentration ranges selected for each drug and investigational agent were based upon clinically achievable concentrations if the clinical Cmax of the agent was known.
Compounds. The drugs and investigational agents: pidnarulex (CX-5461; NSC782164), APTO-253 (NSC789042), BRACO-19 (NSC847499), peposertib (NSC802822), ceralasertib (NSC780249), elimusertib (NSC800525), camonsertib (NSC841442), AZD-1390 (NSC803789), olaparib (NSC753686), talazoparib (NSC767125), ART-558 (NSC835418), sotorasib (NSC818433), MRTX-1133 (NSC836407), SN-38 (NSC673596), topotecan (NSC609699), etoposide (NSC141540), doxorubicin (NSC123127), gemcitabine (NSC613327), 5-fluorouracil (NSC19893), paclitaxel (NSC125973), vemurafenib (NSC761431), panobinostat (NSC761190), R-306465 (JNJ-16241199; NSC773264), adavosertib (NSC754352), TP-3654 (NSC805149), carboplatin (NSC241240), KSQ-4279 (NSC840948), and staurosporine (NSC755774) were obtained from the National Cancer Institute (NCI) Developmental Therapeutics Program Chemical Repository (34). The FDA-approved anticancer drug set is available from the NCI Developmental Therapeutics Program. […] The stock solutions were prepared in dimethyl sulfoxide (DMSO, Sigma-Aldrich, St. Louis, MO, cat. D2650) at 800-fold the tested concentration and stored at -70 degrees C prior to their use. All drugs and investigational agents were tested over a range starting from a high concentration at or near the clinical Cmax and decreasing in half-log increments. If the clinical Cmax for an agent had not been determined, the highest concentration tested was 10 microM.
2.3 Cell Culture. All cells were maintained in an incubator at 37 degrees C and 5% CO2 with 95% humidity. The PDC lines were cultured according to standard operating procedures established by the NCI PDMR. All PDCs were thawed and cultured in Matrigel-coated flasks prepared with a working solution of 1X Ham's F-12 nutrient mix, without supplementation (Invitrogen, cat. 11765054), 100 U/mL penicillin-streptomycin (Invitrogen, cat. 15140122), and 2.5% Matrigel (Corning Inc., cat. 354248) for the first three passages. The 857933-349-R-J2-PDC line was cultured in 6C/Colon 1B media, which includes advanced DMEM/F-12 (Thermo Fisher Scientific, cat. 12634028), 10 mM HEPES (Thermo Fisher Scientific, cat. 15630080), 1X GlutaMAX supplement (Thermo Fisher Scientific, cat. 35050061), 0.1 mg/mL primocin (InvivoGen, cat. ant-pm-2), 10% defined fetal bovine serum, heat inactivated (HyClone Laboratories Inc., cat. SH30070.03HI), 50% L-WRN conditioned media (ATCC, cat. CRL-3276), 1.25 mM N-Acetyl-L-cysteine (Sigma-Aldrich, cat. A9165), 10 mM nicotinamide (Sigma-Aldrich, cat. N0636), 1X B-27 supplement (Thermo Fisher Scientific, cat. 17504044), 1X N-2 supplement (Thermo Fisher Scientific, cat. 17502048), 10 microM Y-27632 dihydrochloride (Tocris Bioscience, cat. 1254), and 50 ng/mL human EGF recombinant protein (Thermo Fisher Scientific, cat. PHG0311). The 485176-168-R4-J1-PDC line was cultured in Panc media, which includes all 6C/Colon 1B media components plus 100 ng/mL human FGF-10 (Thermo Fisher Scientific, cat. 100-26), 500 nM SB-431542 (Selleckchem, cat. S1067), and gastrin (Tocris, cat. 3006).
[…]

[1] = second compound 0.0316 µM, first compound 0.0316 µM
[2] = second compound 0.0316 µM, first compound 0.1 µM
[3] = second compound 0.0316 µM, first compound 0.316 µM
[4] = second compound 0.0316 µM, first compound 1 µM
[5] = second compound 0.0316 µM, first compound 3.16 µM
[6] = second compound 0.0316 µM, first compound 10 µM
[7] = second compound 0.1 µM, first compound 0.0316 µM
[8] = second compound 0.1 µM, first compound 0.1 µM
[9] = second compound 0.1 µM, first compound 0.316 µM
[10] = second compound 0.1 µM, first compound 1 µM
[11] = second compound 0.1 µM, first compound 3.16 µM
[12] = second compound 0.1 µM, first compound 10 µM
[13] = second compound 0.316 µM, first compound 0.0316 µM
[14] = second compound 0.316 µM, first compound 0.1 µM
[15] = second compound 0.316 µM, first compound 0.316 µM
[16] = second compound 0.316 µM, first compound 1 µM
[17] = second compound 0.316 µM, first compound 3.16 µM
[18] = second compound 0.316 µM, first compound 10 µM
[19] = second compound 1 µM, first compound 0.0316 µM
[20] = second compound 1 µM, first compound 0.1 µM
[21] = second compound 1 µM, first compound 0.316 µM
[22] = second compound 1 µM, first compound 1 µM
[23] = second compound 1 µM, first compound 3.16 µM
[24] = second compound 1 µM, first compound 10 µM
[25] = second compound 3.16 µM, first compound 0.0316 µM
[26] = second compound 3.16 µM, first compound 0.1 µM
[27] = second compound 3.16 µM, first compound 0.316 µM
[28] = second compound 3.16 µM, first compound 1 µM
[29] = second compound 3.16 µM, first compound 3.16 µM
[30] = second compound 3.16 µM, first compound 10 µM
[31] = second compound 10 µM, first compound 0.0316 µM
[32] = second compound 10 µM, first compound 0.1 µM
[33] = second compound 10 µM, first compound 0.316 µM
[34] = second compound 10 µM, first compound 1 µM
[35] = second compound 10 µM, first compound 3.16 µM
[36] = second compound 10 µM, first compound 10 µM
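Note: spheroids exposed to compounds for 7 days.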
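Throughout, for viability, T/C: 100% = DMSO vehicle control viability.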

Question: COc1cccc2c1C(=O)c1c(O)c3c(c(O)c1C2=O)CC(O)(C(=O)CO)CC3OC1CC(N)C(O)C(C)O1 (centres undefined) + CN(C)c1ccc(Nc2c3ccc(NC(=O)CCN4CCCC4)cc3nc3cc(NC(=O)CCN4CCCC4)ccc23)cc1 was tested. Which IC50 (second compound 0.0316 µM) did it give?
Answer: 261 nM

Question: What about the IC50 (second compound 0.1 µM) of the same molecule?
Answer: 263 nM

Question: What about the IC50 (second compound 0.316 µM) of the same molecule?
Answer: 229 nM

Question: And the IC50 (second compound 1 µM)?
Answer: < 31.6 nM

Question: What about the IC50 (second compound 3.16 µM) of the same molecule?
Answer: < 31.6 nM

Question: What about the IC50 (second compound 10 µM) of the same molecule?
Answer: < 31.6 nM

Question: And the viability, T/C [1]?
Answer: 93.9%

Question: And the viability, T/C [2]?
Answer: 66.6%

Question: What about the viability, T/C [3] of the same molecule?
Answer: 51.4%

Question: And the viability, T/C [4]?
Answer: 19.9%

Question: What about the viability, T/C [5] of the same molecule?
Answer: 0.2%

Question: And the viability, T/C [6]?
Answer: 0.24%

Question: And the viability, T/C [7]?
Answer: 109%

Question: And the viability, T/C [8]?
Answer: 68.2%

Question: What about the viability, T/C [9] of the same molecule?
Answer: 54.4%

Question: What about the viability, T/C [10] of the same molecule?
Answer: 20.2%

Question: And the viability, T/C [11]?
Answer: 0.28%

Question: What about the viability, T/C [12] of the same molecule?
Answer: 0.36%

Question: What about the viability, T/C [13] of the same molecule?
Answer: 70.2%

Question: And the viability, T/C [14]?
Answer: 55.2%

Question: What about the viability, T/C [15] of the same molecule?
Answer: 47.6%

Question: What about the viability, T/C [16] of the same molecule?
Answer: 10.7%

Question: And the viability, T/C [17]?
Answer: 0.27%

Question: And the viability, T/C [18]?
Answer: 0.33%

Question: And the viability, T/C [19]?
Answer: 11.5%

Question: What about the viability, T/C [20] of the same molecule?
Answer: 11.2%

Question: What about the viability, T/C [21] of the same molecule?
Answer: 7.77%

Question: And the viability, T/C [22]?
Answer: 2.02%

Question: And the viability, T/C [23]?
Answer: 0.44%

Question: And the viability, T/C [24]?
Answer: 0.64%

Question: And the viability, T/C [25]?
Answer: 1.52%

Question: What about the viability, T/C [26] of the same molecule?
Answer: 2.29%

Question: What about the viability, T/C [27] of the same molecule?
Answer: 1.63%

Question: And the viability, T/C [28]?
Answer: 0.4%

Question: What about the viability, T/C [29] of the same molecule?
Answer: 0.14%

Question: And the viability, T/C [30]?
Answer: 0.51%

Question: And the viability, T/C [31]?
Answer: 0.38%

Question: And the viability, T/C [32]?
Answer: 0.25%

Question: What about the viability, T/C [33] of the same molecule?
Answer: 0.32%

Question: And the viability, T/C [34]?
Answer: 0.18%

Question: And the viability, T/C [35]?
Answer: 0.29%

Question: And the viability, T/C [36]?
Answer: 0.26%

Question: Which IC50 (second compound 0.0316 µM) does the source give for COc1ncnc(C2CC2)c1-c1ncc2cnn(Cc3ccc(-c4nc(C(F)(F)F)cn4C(C)C)cc3)c2n1 + CN(C)c1ccc(Nc2c3ccc(NC(=O)CCN4CCCC4)cc3nc3cc(NC(=O)CCN4CCCC4)ccc23)cc1 here?
Answer: > 10000 nM

Question: What about the IC50 (second compound 0.1 µM) of the same molecule?
Answer: > 10000 nM

Question: What about the IC50 (second compound 0.316 µM) of the same molecule?
Answer: < 31.6 nM

Question: And the IC50 (second compound 1 µM)?
Answer: < 31.6 nM

Question: And the IC50 (second compound 3.16 µM)?
Answer: < 31.6 nM

Question: What about the IC50 (second compound 10 µM) of the same molecule?
Answer: < 31.6 nM

Question: What about the viability, T/C [1] of the same molecule?
Answer: 86.7%

Question: And the viability, T/C [2]?
Answer: 100%

Question: What about the viability, T/C [3] of the same molecule?
Answer: 101%

Question: And the viability, T/C [4]?
Answer: 104%

Question: What about the viability, T/C [5] of the same molecule?
Answer: 92.8%

Question: What about the viability, T/C [6] of the same molecule?
Answer: 86.3%

Question: What about the viability, T/C [7] of the same molecule?
Answer: 97%

Question: What about the viability, T/C [8] of the same molecule?
Answer: 93.3%

Question: And the viability, T/C [9]?
Answer: 90.3%

Question: And the viability, T/C [10]?
Answer: 88.9%

Question: What about the viability, T/C [11] of the same molecule?
Answer: 80.3%

Question: What about the viability, T/C [12] of the same molecule?
Answer: 67.1%

Question: What about the viability, T/C [13] of the same molecule?
Answer: 39.9%

Question: What about the viability, T/C [14] of the same molecule?
Answer: 37%

Question: And the viability, T/C [15]?
Answer: 35.6%

Question: What about the viability, T/C [16] of the same molecule?
Answer: 28.8%

Question: And the viability, T/C [17]?
Answer: 24.3%

Question: What about the viability, T/C [18] of the same molecule?
Answer: 11.6%

Question: What about the viability, T/C [19] of the same molecule?
Answer: 3.06%

Question: And the viability, T/C [20]?
Answer: 1.98%

Question: What about the viability, T/C [21] of the same molecule?
Answer: 2.28%

Question: And the viability, T/C [22]?
Answer: 1.99%

Question: And the viability, T/C [23]?
Answer: 1.79%

Question: What about the viability, T/C [24] of the same molecule?
Answer: 1.02%

Question: And the viability, T/C [25]?
Answer: 0.27%

Question: What about the viability, T/C [26] of the same molecule?
Answer: 0.25%

Question: And the viability, T/C [27]?
Answer: 0.36%

Question: What about the viability, T/C [28] of the same molecule?
Answer: 0.22%

Question: What about the viability, T/C [29] of the same molecule?
Answer: 0.34%

Question: And the viability, T/C [30]?
Answer: 0.18%

Question: What about the viability, T/C [31] of the same molecule?
Answer: 0.13%

Question: What about the viability, T/C [32] of the same molecule?
Answer: 0.32%

Question: And the viability, T/C [33]?
Answer: 0.16%

Question: And the viability, T/C [34]?
Answer: 0.41%

Question: And the viability, T/C [35]?
Answer: 0.41%

Question: And the viability, T/C [36]?
Answer: 0.19%
